Reference: patent publication US4472409A, “2-Pyridylmethyl thio(sulfinyl)benzimidazoles with gastric acid secretion inhibiting effects” (Byk Gulden Lomberg Chemische Fabrik Gesellschaft mit …, priority 1981, dated 1984)

Columns and labels:
[1] = test system: gastric ulcers provoked by a pylorus ligature (Shay rat); assay: Protective action on the stomach: antiulcerogenic test in the Shay rat (pylorus ligature + oral 100 mg/kg acetylsalicylic acid), reduction of ulcer index; format: in vivo; settings: for ED25 / ED50: Rattus norvegicus, po; for ED25 / Protective action on the stomach (rat), ED25: dose reducing ulcer index by 25% vs control; for ED25 / ED50 / Protective action on the stomach (rat), ED25 / Protective action on the stomach (rat), ED50: logarithmic interpolation; for ED50 / Protective action on the stomach (rat), ED50: dose reducing ulcer index by 50% vs control; for Protective action on the stomach (rat), reduction in the ulcer index: 1 hour before pylorus ligature
Method: The effect of the compounds according to the invention on the formation of gastric ulcers provoked by a pylorus ligature (4 hours, so-called Shay rat) and oral administration of 100 mg/kg acetylsalicylic acid and on the inhibition of gastric secretion in rats during 4 hours is shown in the following table:
(§1) The antiulcerogenic action was tested in accordance with the method using the so-called Shay rat: Rats (female, 180 to 200 g, 4 animals per cage on a high grid) which had been fasted for 24 hours were subjected to ulcer provocation by pylorus ligature (under diethyl ether anaesthesia) and oral administration of 100 mg/10 ml/kg of acetylsalicyclic acid. The substances to be tested are administered orally (10 ml/kg) 1 hour before the pylorus ligature. The wound is closed by means of Michel clamps. 4 hours thereafter, the animals are killed under ether anaesthesia by atlas dislocation, and the stomach is removed. The stomach is opened longitudinally and fixed to a cork tile after the amount of gastric juice secreted [volume, and its hydrochloric acid content (titration with sodium hydroxide solution)] has been determined, the number and size (=diameter) of ulcers present are determined with a stereomicroscope with 10-fold magnification. The product of the degree of severity (according to the following rating scale) and the number of ulcers serves as the individual ulcer index.
The reduction in the average ulcer index of each treated group compared with that of the control group (=100%) serves as a measure of the antiulcerogenic effect. The ED25 and the ED50 designate the doses which reduce the average ulcer index and the gastric secretion by 25 and 50%.

[2] = test system: gastric secretion (HCl-secretion of the rat stomach); assay: Gastric secretion inhibition (HCl-secretion over 4 hours) in the Shay rat; format: in vivo; settings: for ED25 / ED50: Rattus norvegicus, po; for ED25 / Gastric secretion (rat), ED25: dose reducing HCl secretion (sum 4 hours) by 25% vs control; for Gastric secretion (rat), inhibition in % of HCl-secretion: 4 hours
Method: as §1, with “index. The reduction in the average ulcer index of each treated group compared with that of the control group (=100%) serves as a measure of the antiulcerogenic effect. The ED25 and the ED50 designate the doses which reduce the average ulcer index and the gastric secretion by 25 and 50%.” for “index.”

[3] = dose reducing HCl secretion (sum 4 hours) by 50% vs control, logarithmic interpolation

| Compound | ED25 [1] [mg/kg] | ED50 [1] [mg/kg] | Protective action on the stomach (rat), reduction in the ulcer index ([1]; dose 0.3 mg/kg p.o.) [%] | Protective action on the stomach (rat), reduction in the ulcer index ([1]; dose 1.0 mg/kg p.o.) [%] | ED25 ([2]; logarithmic interpolation) [mg/kg] | ED50 [2, 3] [mg/kg] | Gastric secretion (rat), inhibition in % of HCl-secretion ([2]; dose 0.3 mg/kg p.o.) [%] | Gastric secretion (rat), inhibition in % of HCl-secretion ([2]; dose 1.0 mg/kg p.o.) [%] | Protective action on the stomach (rat), reduction in the ulcer index ([1]; dose 0.1 mg/kg p.o.) | Protective action on the stomach (rat), reduction in the ulcer index ([1]; dose 3.0 mg/kg p.o.) [%] | Protective action on the stomach (rat), ED25 [1] | Protective action on the stomach (rat), ED50 [1] | Gastric secretion (rat), inhibition in % of HCl-secretion ([2]; dose 0.1 mg/kg p.o.) | Gastric secretion (rat), inhibition in % of HCl-secretion ([2]; dose 3.0 mg/kg p.o.) [%] | Gastric secretion (rat), ED25 ([2]; logarithmic interpolation) | Protective action on the stomach (rat), reduction in the ulcer index ([1]; dose 10.0 mg/kg p.o.) [%] | Gastric secretion (rat), inhibition in % of HCl-secretion ([2]; dose 10.0 mg/kg p.o.) [%] | Gastric secretion (rat), ED50 [2, 3] |
| --- | --- | --- | --- | --- | --- | --- | --- | --- | --- | --- | --- | --- | --- | --- | --- | --- | --- | --- |
| COc1ccnc(CSc2nc3cc(C(F)(F)F)ccc3[nH]2)c1C [Serial No. 7, 5-Trifluoromethyl-2-[(4-methoxy-3-methyl-2-pyridylmethyl)thio]-(1H)-benzimidazole] | ≤ 0.3 | 0.5 | 30 | 94 | 0.3 | 0.5 | 26 | 85 | – | – | – | – | – | – | – | – | – | – |
| 4-Trifluoromethyl-2-[(4-methoxy-2-pyridylmethyl)sulfinyl]-(1H)-benzimidazole [Example 1] | – | – | 12 | 27 | – | – | 9 | 15 | +1% | 58 | 0.9 mg/kg, p.o. | 2.3 mg/kg, p.o. | 5% | 22 | ≥ 3.0 mg/kg, p.o. | – | – | – |
| COc1ccnc(C[S+]([O-])c2nc3cc(C(F)(F)F)ccc3[nH]2)c1 (stereo not drawn) [Serial No. 2, 5-Trifluoromethyl-2-[(4-methoxy-2-pyridylmethyl)sulfinyl]-(1H)-benzimidazole] | 0.24 | 0.45 | 29 | 88 | 0.35 | 0.75 | 18 | 60 | 6% | 100 | – | – | 0% | 84 | – | – | – | – |
| COc1ccnc(C[S+]([O-])c2nc3cc(C(F)(F)F)ccc3[nH]2)c1C (stereo not drawn) [Serial No. 3, 5-Trifluoromethyl-2-[(4-methoxy-3-methyl-2-pyridylmethyl)sulfinyl]-(1H)--benzimidazole] | 0.3 | 0.45 | 25 | 98 | < 0.3 | 0.4 | 40 | 88 | – | – | – | – | – | – | – | 100 | 92 | – |
| COc1c(C)cnc(C[S+]([O-])c2nc3cc(C(F)(F)F)ccc3[nH]2)c1C (stereo not drawn) [Serial No. 4, 5-Trifluoromethyl-2-[(4-methoxy-3,5-dimethyl-2-pyridylmethyl)sulfinyl]-(1H)-benzimidazole] | 0.24 | 0.55 | 30 | 69 | 0.48 | 1 | 10 | 50 | 1% | 89 | – | – | +5% | 75 | – | – | – | – |
| 5-Trifluoromethyl-2-[(4-methoxy-3,5-dimethyl-2-pyridylmethyl)thio]-(1H)-benzimidazole [Example 8] | – | – | – | 50 | – | – | – | 12 | – | 63 | < 1.0 mg/kg, p.o. | 1.0 mg/kg, p.o. | – | 50 | 1.5 mg/kg, p.o. | – | – | 3.0 mg/kg, p.o. |
| COc1ccnc(CSc2nc3cc(C(F)(F)F)ccc3[nH]2)c1 [Serial No. 6, 5-Trifluoromethyl-2-[(4-methoxy-2-pyridylmethyl)thio]-(1H)-benzimidazole] | ~1 | 1.4 | – | 27 | 1.2 | 2 | – | 15 | – | 97 | – | – | – | 70 | – | – | – | – |
